What all share (experiment): normalised viability (% of control), CellTiter-Blue; higher = more viable cells (100 = DMSO, 0 = benzethonium chloride kill control)
Conditions in all cases: incubation time: 72 h

The subject of test [1] is HCC1599. As to the method:
(§1)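 DSRT, CellTiter-Blue viability, 72 h incubation. Signal is normalised to DMSO and benzethonium chloride controls. Value is the normalised response at dose 1.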

Test [2] has as its system BT-549. As to the method:
as §1

Test [3] relates to HDQ-P1. On the procedure:
as §1

Test [4] concerns CAL-148. As to the method:
as §1

Test [5] has as its system MDA-MB-231. As to the method: as §1
For test [6], the system named is CAL-120. On the procedure:
as §1

The subject of test [7] is SK-BR-3. As to the method:
as §1

For test [8], the system named is MDA-MB-468. On the procedure: as §1
Test [9] deals with BT-474. On the procedure: as §1
The test system of test [10] is CAL-51. On the procedure: as §1
The subject of test [11] is HCC1143. On the procedure: as §1
In test [12] the test system is HCC1937. On the procedure:
as §1

The test system of test [13] is MFM-223. On the procedure:
as §1

In test [14] the test system is Hs578T. On the procedure:
as §1

For test [15], the system named is CAL-85-1. As to the method:
as §1

In test [16] the test system is MDA-MB-436. On the procedure:
as §1

The test system of test [17] is DU-4475. On the procedure:
as §1

In test [18] the test system is MDA-MB-453. On the procedure:
as §1

Structures are written as SMILES.

Turning to `CCCC(CCC)C(=O)O` [Valproic acid] (1 nM), the normalised viability in [1] turned out to be 83.6%; in test [2], 98.6%; in [3], 119%; in [4], 103%; in test [5], 97.7%; in test [6], 105%. Also, the normalised viability worked out at 103% in test [7]; 102% in test [8]; 99% in [9]; 99.8% in test [10]; 99.1% in test [11]; 115% in test [12]. For the same compound, the normalised viability in test [13] turned out to be 104%; in test [14] it was 130%; in [15], 95.3%; in test [16], 89.9%; in test [17], 109%; in [18], 108%.
